Assay results as given in US10457662B2, “Substituted amides for treating and preventing cancer” (The Regents of the University of Michigan, priority 2015, dated 2019).
Like-named read-outs stand apart in the source and are kept apart here.

Experiments:
[1] = test system: SNU398; assay: MTT assay, SNU398; format: cell-based; settings: Homo sapiens, SNU-398, HCC cell line
Method: (§1) In order to understand its potential selectivity for different types of cancer and choose the best model for further characterization, QN523 was tested in a panel of 12 cancer cell lines with various genetic and pathological backgrounds (Table 2). […] Because of remarkable potency of QN-523 in pancreatic cancer in-depth preclinical studies in this disease model were performed.

[2] = test system: WIPI1, GABARAPL1 and LC3B; assay: Western blotting of autophagy related proteins in MiaPaCa-2; format: cell-based
Method: FIG. 12: QN523 induces protein expression of autophagy markers dose-dependently.
Significant induction of the protein was detected at concentrations as low as 0.25 μM.
(§2) In addition, primary antibodies for LC3B, survivin, cyclin D1, Stat3 and phosphorylated Stat3 (Y705) are from Cell Signaling Technology.

[3] = test system: BxPC-3; assay: MTT assay, BxPC-3; format: cell-based; settings: Homo sapiens
Method: (§3) Experiments conducted during the course of developing embodiments for the present invention involved performance of a phenotypic screen of a library of 20,000 small-molecules representing five million compounds. […] Subsequently, a lead optimization campaign was performed to synthesize a series of close analogs. Initially, the 50 analogs were tested in three pancreatic cancer cell lines using MTT assay (Table 1).
(§4) For in vitro studies, compounds were dissolved in DMSO at 10 mM as stock solutions and stored at −20° C. For in vivo studies, QN523 was dissolved in a vehicle containing 5% DMSO, 35% propylene glycol and 60% saline, and administered at 100 uL through intraperitoneal injections.

[4] = test system: HCT116 p53+/+; assay: MTT assay, HCT116 p53+/+; format: cell-based; settings: Homo sapiens, HCT-116, MTT assay; colorectal cancer cell line
Method: as §1

[5] = test system: Ovcar 8; assay: MTT assay, Ovcar 8; format: cell-based; settings: Homo sapiens
Method: as §1

[6] = test system: Jurkat; assay: MTT assay, Jurkat; format: cell-based; settings: Homo sapiens, leukemia cell line
Method: as §1

[7] = test system: SNU449; assay: MTT assay, SNU449; format: cell-based; settings: Homo sapiens, SNU-449, HCC cell line
Method: as §1

[8] = test system: PDAC cell lines; assay: Colony formation assay, three pancreatic cancer cell lines; format: cell-based; settings: 1 μM; all three cell lines; 24 h treatment
From the text: A) QN523 inhibits colony formation in PDAC cell lines. […] Data points represent Mean±SD from three independent experiments.
The cytotoxicity of QN523 was further evaluated in three pancreatic cancer cell lines using colony formation assay. Using numbers and sizes of colonies as the experimental readout, this long-term assay estimates both anti-proliferative and cytotoxic effect.

[9] = test system: panel of 12 cancer cell lines; assay: MTT assay, panel of 12 cancer cell lines; format: cell-based; settings: range over the panel; read-out: IC50 values across all 12 cell lines
Method: as §1

[10] = test system: MiaPaCa-2 cells; assay: Ingenuity Pathway Analysis (IPA) of Bru-seq gene lists; settings: 1 μM, 24 h
From the text: Top 20 canonical pathways regulated by QN523. Histogram represents percentage of genes regulated in the pathway; numbers on the histogram are total numbers of genes in the specific pathway. […] Orange line represents statistical significance in regulation of the indicated pathway.

[11] = test system: MiaPaCa-2; assay: MTT assay, MiaPaCa-2
Method: Cells were treated with QN523 for 1, 4, 8, 24, 48, 72 h and left in culture in fresh media. MTT assay was performed 72 h after initiation of treatment. Data points represent Mean±SD from three independent experiments.
as §3, §4

[12] = test system: SNU387; assay: MTT assay, SNU387; format: cell-based; settings: Homo sapiens, SNU-387, HCC cell line
Method: as §1

[13] = test system: GRP78, CHOP, ATF3, GDF15; assay: Western blotting of stress responsive proteins in MiaPaCa-2; format: cell-based; settings: 72 h, western blotting
Method: FIG. 11: QN523 induces protein expression of stress markers dose-dependently.
This example describes the validation of biomarkers GDF15, ATF3, DDIT3, HSPA5, WIPI1, GABARAPL1 and MAP1LC3B in pancreatic cancer cell lines. To validate the findings from bioinformatics analysis basing on Bru-seq experiments, the proposed biomarkers were further tested in pancreatic cancer cell lines. […] However, the potency of Sulindac is much lower than that of QN523, with IC50 of 300 μM in MiaPaCa-2.
as §2

[14] = test system: three pancreatic cancer cell lines; assay: MTT assay, three pancreatic cancer cell lines; format: cell-based; settings: read-out: Mark: IC50 lower than 1 μM in at least one cell line, Table 1
[15] = test system: Panc-1; assay: MTT assay, Panc-1; format: cell-based; settings: Homo sapiens
Method: as §3, §4

[16] = test system: SNU475; assay: MTT assay, SNU475; format: cell-based; settings: Homo sapiens, SNU-475, HCC cell line
Method: as §1

[17] = test system: Hep3B; assay: MTT assay, Hep3B; format: cell-based; settings: Homo sapiens, HCC cell line
Method: as §1

[18] = test system: MiaPaCa-2 cells; assay: DAVID analysis of Bru-seq gene lists; settings: genes changed at least 2 fold
Method: Histogram represents statistical significance in regulation of the indicated theme.
The lists were also analyzed by Database for Annotation, Visualization and Integrated Discovery (DAVID), which identify enriched biological themes with particular focus on gene ontology terms, as well as functional-related gene groups (see, e.g., Huang da W, Sherman B T, Lempicki R A (2009) Nature protocols 4(1): 44-57; Huang da W, Sherman B T, Lempicki R A (2009) Nucleic acids research 37(1): 1-13). […] In addition, induction of apoptosis and disruption of cell cycle might be important cellular events contributing to cytotoxicity of QN523.
Top functional terms identified by DAVID are reported.

[19] = test system: HepG2; assay: MTT assay, HepG2; format: cell-based; settings: Homo sapiens, HCC cell line
Method: as §1

With `O=C(Nc1cccc2cccnc12)c1cnccn1` [QN523, Pyrazine-2-carboxylic acid quinolin-8-ylamide] the IC50 [1] was 1900 nM, the “lowest concentration with significant induction of WIPI1 protein” value ([2]; 72 h) was 0.25 µM and the “autophagy-related markers WIPI1, GABARAPL1 and LC3B” value ([2]; 72 h treatment, western blotting) was “Accumulation”. The IC50 ([3]; BXPC-3, read-out: IC50 BxPC-3) was 3300 nM, the IC50 ([3]; BXPC-3, read-out: IC50 Values BxPC-3) was 3300 ± 260 nM and the IC50 [4] was about 100 nM. For the same compound, the IC50 [5] was 300 nM, the IC50 [6] was about 100 nM and the IC50 [7] was 400 nM. For the same compound, the “inhibition of colony formation” value [8] was “Complete inhibition of colony formation”, the IC50 [9] was 100 to 5700 nM and the “genes up-regulated in unfolded protein response, ER stress pathway and circadian rhythm signaling” value [10] was “about 25%”. It also gave an IC50 ([11]; Homo sapiens, MIA PaCa-2, read-out: IC50 Mia PaCa-2, MTT assay, PDAC cell line) of 110 nM, an IC50 ([11]; Homo sapiens, MIA PaCa-2, read-out: IC50 Values MiaPaCa-2, MTT assay, Mean ± SD, three independent experiments) of 110 ± 30 nM and an IC50 ([11]; read-out: IC50 Mia PaCa-2, MTT assay, PDAC cell line) of about 100 nM. For the same compound, the “cytotoxicity versus treatment time” value ([11]; treated 1, 4, 8, 24, 48, 72 h, washed, MTT at 72 h) was “time dependent cytotoxicity effect”, the IC50 [12] was 5730 nM and the “protein levels of stress responsive markers HSPA5, DDIT3, ATF3 and GDF15” value [13] was “dose dependent upregulation”. For the same compound, the IC50 [14] was under 1000 nM, the IC50 ([15]; PANC-1, read-out: IC50 Panc-1) was 500 nM and the IC50 ([15]; PANC-1, read-out: IC50 Values Panc-1) was 500 ± 70 nM. The IC50 [16] was 2670 nM, the IC50 [17] was 210 nM and the biological themes downregulated [18] was “chromosomal proteins and cell cycle genes”. The biological themes upregulated [18] was “Apoptosis, (bZIP) transcription factors, ER related genes and stress responses” and the IC50 [19] was 500 nM.
